Results on seven compounds are retold here after PubChem BioAssay AID1259407 (Chemical Carcinogenesis Research Information System (CCRIS), 2018).

Activity calls are given as the source filed them. No rule for the calls is given here.

This series deals with CCRIS mutagenicity, Ames/micronucleus/aberration tests. In words: CCRIS mutagenicity studies.
The mark [1] stands for this setting: Test System: AMES SALMONELLA TYPHIMURIUM, Strain/Indicator: TA98, Metabolic Activation: NONE, Method: PREINCUBATION
[2] abbreviates: Test System: AMES SALMONELLA TYPHIMURIUM, Strain/Indicator: TA100, Metabolic Activation: NONE, Method: PREINCUBATION
Setting [3] is: Test System: AMES SALMONELLA TYPHIMURIUM, Strain/Indicator: TA98, Metabolic Activation: NONE, Method: STANDARD PLATE.
Setting [4] is: Test System: AMES SALMONELLA TYPHIMURIUM, Strain/Indicator: TA98, Metabolic Activation: RAT, LIVER, S-9, AROCLOR 1254, Method: STANDARD PLATE.
The mark [5] stands for this setting: Test System: AMES SALMONELLA TYPHIMURIUM, Strain/Indicator: TA100, Metabolic Activation: NONE, Method: STANDARD PLATE.
[6] abbreviates: Test System: AMES SALMONELLA TYPHIMURIUM, Strain/Indicator: TA100, Metabolic Activation: RAT, LIVER, S-9, AROCLOR 1254, Method: STANDARD PLATE.
[7] abbreviates: Test System: AMES SALMONELLA TYPHIMURIUM, Strain/Indicator: TA1535, Metabolic Activation: NONE, Method: STANDARD PLATE.

Consider `C[C@H]1C(=O)O[C@@H]2CCN3CC=C(COC(=O)[C@](C)(O)[C@]1(C)O)[C@H]23`, for which the mutagenic call (Test System: AMES SALMONELLA TYPHIMURIUM, Strain/Indicator: TA100, Metabolic Activation: HAMSTER, LIVER, S-9, PCB, Method: PREINCUBATION) is “inactive; negative”; the mutagenic call (Test System: AMES SALMONELLA TYPHIMURIUM, Strain/Indicator: TA100, Metabolic Activation: RAT, LIVER, S-9, PCB, Method: PREINCUBATION) is “inactive; negative”; the mutagenic call (Test System: AMES SALMONELLA TYPHIMURIUM, Strain/Indicator: TA100, Metabolic Activation: RAT, LIVER, S-9, SODIUM PHENOBARBITAL AND BETA-NAPHTHOFLAVONE, Method: PREINCUBATION) was “inactive; negative”; the mutagenic call (Test System: MOUSE LYMPHOMA, Strain/Indicator: L5178Y (TK+/TK-), Metabolic Activation: NONE, Method: MICROWELL) is “active; positive”; the mutagenic call (Test System: MOUSE LYMPHOMA, Strain/Indicator: L5178Y (TK+/TK-), Metabolic Activation: S-9, Method: MICROWELL) is “active; positive”; the mutagenic call (Test System: UDS HAMSTER HEPATOCYTES, Strain/Indicator: THY INCORP, Metabolic Activation: NONE, Method: AUTORADIOGRAPHY) was “active; positive”. Also, the mutagenic call reads like this: (Test System: UDS MOUSE HEPATOCYTES, Strain/Indicator: THY INCORP, Metabolic Activation: NONE, Method: AUTORADIOGRAPHY) “active; positive”; (Test System: UDS RAT HEPATOCYTES, Strain/Indicator: THY INCORP, Metabolic Activation: NONE, Method: AUTORADIOGRAPHY) “active; positive”.
For `C/C(O)=C(\N=O)C(=O)N(c1ccccc1)N(C)N=O`, the mutagenic call runs as follows: under setting [1], “active; positive”; (Test System: AMES SALMONELLA TYPHIMURIUM, Strain/Indicator: TA98, Method: PREINCUBATION) “active; positive”; under setting [2], “active; positive”; (Test System: AMES SALMONELLA TYPHIMURIUM, Strain/Indicator: TA100, Method: PREINCUBATION) “active; positive”.
For `NC(=O)CCC(=O)Nc1ccc(Cl)c(Cl)c1Cl`, the mutagenic call under setting [3] is “inactive; negative”, the mutagenic call under setting [4] was “inactive; negative”, the mutagenic call under setting [5] is “inactive; negative” and the mutagenic call under setting [6] was “inactive; negative”.
As for `Cc1cccc(O)c1C`, the mutagenic call is “inactive; negative” under setting [1]; “inactive; negative” (Test System: AMES SALMONELLA TYPHIMURIUM, Strain/Indicator: TA98, Metabolic Activation: RAT LIVER S-9, PHENOBARBITAL AND BETA-NAPHTHOFLAVONE, Method: PREINCUBATION); “inactive; negative” under setting [2]; “inactive; negative” (Test System: AMES SALMONELLA TYPHIMURIUM, Strain/Indicator: TA100, Metabolic Activation: RAT LIVER S-9, PHENOBARBITAL AND BETA-NAPHTHOFLAVONE, Method: PREINCUBATION); “inactive; negative” (Test System: AMES SALMONELLA TYPHIMURIUM, Strain/Indicator: TA1535, Metabolic Activation: NONE, Method: PREINCUBATION); “inactive; negative” (Test System: AMES SALMONELLA TYPHIMURIUM, Strain/Indicator: TA1535, Metabolic Activation: RAT LIVER S-9, PHENOBARBITAL AND BETA-NAPHTHOFLAVONE, Method: PREINCUBATION). The mutagenic call is “inactive; negative” (Test System: AMES SALMONELLA TYPHIMURIUM, Strain/Indicator: TA1537, Metabolic Activation: NONE, Method: PREINCUBATION); “inactive; negative” (Test System: AMES SALMONELLA TYPHIMURIUM, Strain/Indicator: TA1537, Metabolic Activation: RAT LIVER S-9, PHENOBARBITAL AND BETA-NAPHTHOFLAVONE, Method: PREINCUBATION); “inactive; negative” (Test System: AMES SALMONELLA TYPHIMURIUM, Strain/Indicator: TA1538, Metabolic Activation: NONE, Method: PREINCUBATION); “inactive; negative” (Test System: AMES SALMONELLA TYPHIMURIUM, Strain/Indicator: TA1538, Metabolic Activation: RAT LIVER S-9, PHENOBARBITAL AND BETA-NAPHTHOFLAVONE, Method: PREINCUBATION); “inactive; negative” (Test System: E.COLI, Strain/Indicator: WP2UVRA, Metabolic Activation: NONE, Method: PREINCUBATION); “inactive; negative” (Test System: E.COLI, Strain/Indicator: WP2UVRA, Metabolic Activation: RAT LIVER S-9, PHENOBARBITAL AND BETA-NAPHTHOFLAVONE, Method: PREINCUBATION).
For `CCC1(c2ccccc2)C(=O)N=C(O)NC1=O` (stereo not drawn), the mutagenic call by setting is: (Test System: AMES SALMONELLA TYPHIMURIUM, Strain/Indicator: TA97, Metabolic Activation: NONE, Method: STANDARD PLATE) “inactive; negative”; (Test System: AMES SALMONELLA TYPHIMURIUM, Strain/Indicator: TA97, Metabolic Activation: RAT, LIVER, S-9, AROCLOR 1254, Method: STANDARD PLATE) “inactive; negative”; under setting [3], “inactive; negative”; under setting [4], “inactive; negative”; under setting [5], “inactive; negative”; under setting [6], “inactive; negative”. In addition, the mutagenic call is “inactive; negative” (Test System: AMES SALMONELLA TYPHIMURIUM, Strain/Indicator: TA102, Metabolic Activation: RAT, LIVER, S-9, AROCLOR 1254, Method: STANDARD PLATE) and “active; positive” under setting [7].
On to `O=C(Nc1ccc(Br)cc1)c1cc(Br)cc(Br)c1O`, for which the mutagenic call by setting is: under setting [3], “inactive; negative”; (Test System: AMES SALMONELLA TYPHIMURIUM, Strain/Indicator: TA98, Metabolic Activation: RAT, LIVER, S-9, KANECHLOR 400, Method: STANDARD PLATE) “inactive; negative”; under setting [5], “inactive; negative”; (Test System: AMES SALMONELLA TYPHIMURIUM, Strain/Indicator: TA100, Metabolic Activation: RAT, LIVER, S-9, KANECHLOR 400, Method: STANDARD PLATE) “inactive; negative”; under setting [7], “inactive; negative”; (Test System: AMES SALMONELLA TYPHIMURIUM, Strain/Indicator: TA1535, Metabolic Activation: RAT, LIVER, S-9, KANECHLOR 400, Method: STANDARD PLATE) “inactive; negative”. In addition, the mutagenic call (Test System: AMES SALMONELLA TYPHIMURIUM, Strain/Indicator: TA1537, Metabolic Activation: NONE, Method: STANDARD PLATE) is “inactive; negative”; the mutagenic call (Test System: AMES SALMONELLA TYPHIMURIUM, Strain/Indicator: TA1537, Metabolic Activation: RAT, LIVER, S-9, KANECHLOR 400, Method: STANDARD PLATE) was “inactive; negative”; the mutagenic call (Test System: AMES SALMONELLA TYPHIMURIUM, Strain/Indicator: TA1538, Metabolic Activation: NONE, Method: STANDARD PLATE) is “inactive; negative”; the mutagenic call (Test System: AMES SALMONELLA TYPHIMURIUM, Strain/Indicator: TA1538, Metabolic Activation: RAT, LIVER, S-9, KANECHLOR 400, Method: STANDARD PLATE) is “inactive; negative”.
In the case of `OC1c2cccnc2C2OC2C1O` (stereo not drawn), the mutagenic call by setting is: under setting [5], “inactive; negative”; (Test System: AMES SALMONELLA TYPHIMURIUM, Strain/Indicator: TA100, Metabolic Activation: RAT, LIVER, S-9, AROCLOR 1254 (10 OR 20%), Method: STANDARD PLATE) “inactive; negative”.
